According to patent publication US10597405B2, “Chemical compounds” (ASTRAZENECA AB, priority 2017, dated 2020):
pIC50: −log10 of the molar value.

Target: T1, KRasG12C (Homo sapiens, UniProt P01116, G12C)
T1 construct: biotin (biotinylated); made in house
Assay: KRasG12C functional assay (HTRF nucleotide exchange / Raf RBD binding)
Type: biochemical
Conditions: GDP loaded biotinylated KRasG12C, samples incubated 4 hrs, FRET readout; single experiment or average of two or more
Protocol: KRasG12C Functional Assay
All enzyme and substrate solutions were prepared in assay buffer containing 20 mM HEPES (pH 7.5), 5 mM MgCl2, 150 mM NaCl, and 0.01% Tween 20. […] In a separate mix 20 nM GST-Raf Ras binding domain (GST-Raf RBD, purified in house) and 4 μg/ml anti-GST XL665 antibody (Cisbio) was prepared in assay buffer containing 50 mM Potassium Fluoride and 0.05 mg/ml BSA and equilibrated for 4 hours before adding 0.6 μM Guanosine 5′-[γ-thio]triphosphate (GTPγS, Sigma) and 0.08 μM SOS (purified in house). 5 μl of the GST-RAF RBD mix was then dispensed into each well of the assay plate. […] This is detected simultaneously via the specific binding interaction between active GTPγS KRas^G12C with GST-Raf RBD which brings the europium and XL665 into close proximity enabling an increased FRET signal to be detected on a Pherastar (BMG) plate reader equipped with the HTRF filter module. […] IC50 values were calculated from normalised dose-response response FRET data curve fitted in Genedata screener (Basel, Switzerland).

T1 sequence (P01116 1-188 isoform P01116-2 G12C): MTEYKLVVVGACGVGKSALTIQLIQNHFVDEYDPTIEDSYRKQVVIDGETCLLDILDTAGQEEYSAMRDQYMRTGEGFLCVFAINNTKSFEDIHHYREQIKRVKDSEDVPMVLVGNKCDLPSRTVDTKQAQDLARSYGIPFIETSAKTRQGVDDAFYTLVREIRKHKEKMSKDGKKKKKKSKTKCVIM

Row | SMILES | pIC50
1 | C=CC(=O)N1CCN2c3c(cnc4c(OC)c(-c5c(O)cccc5F)c(Cl)cc34)OC[C@H]2C1 (single isomer, unassigned) [Compound 23] | 5.38
2 | C=CC(=O)N1CCN2c3c(cnc4c(F)c(-c5c(C)ccc6[nH]cnc56)c(Cl)cc34)N(C)C(=O)[C@H]2C1 (single isomer, unassigned) [Compound 25] | 7.55
3 | C=CC(=O)N1CCN2c3c(cnc4c(F)c(-c5c(C)ccc6[nH]cnc56)c(Cl)cc34)N(C)C(=O)[C@H]2C1 (single isomer, unassigned) [Compound 26] | 6.35
4 | C=CC(=O)N1C[C@@H]2C(=O)N(C)c3cnc4c(F)c(-c5c(C)ccc6[nH]cnc56)c(Cl)cc4c3N2C[C@H]1C (single isomer, unassigned) [Compound 27] | 5.06
5 | C=CC(=O)N1C[C@@H]2C(=O)N(C)c3cnc4c(F)c(-c5c(C)ccc6[nH]cnc56)c(Cl)cc4c3N2C[C@H]1C (single isomer, unassigned) [Compound 28] | 8.52
6 | C[C@@H]1CN2c3c(cnc4c(F)c(-c5c(O)cccc5F)c(Cl)cc34)N(C)C(=O)[C@H]2CN1C(=O)/C=C/CN(C)C (single isomer, unassigned) [Compound 29] | 7.60
7 | C=CC(=O)N1C[C@@H]2C(=O)Nc3cnc4c(F)c(-c5c(O)cccc5F)c(Cl)cc4c3N2C[C@H]1C (single isomer, unassigned) [Compound 30] | 5.34
8 | C=CC(=O)N1C[C@@H]2C(=O)Nc3cnc4c(F)c(-c5c(O)cccc5F)c(Cl)cc4c3N2C[C@H]1C (single isomer, unassigned) [Compound 31] | 8.40
9 | C=CC(=O)N1CCN2c3c(cnc4cc(-c5c(O)cccc5F)c(Cl)cc34)N(C)C(=O)C2(C)C1 (single isomer, unassigned) [Compound 32, 11-Chloro-10-(2-fluoro-6-hydroxyphenyl)-4a,6-dimethyl-3-(prop-2-enoyl)-2,3,4,4a-tetrahydro-1H-pyrazino[1′,2′:4,5]pyrazino[2,3-c]quinolin-5(6H)-one] | 5.66
10 | C=CC(=O)N1CCN2c3c(cnc4c(F)c(-c5c(F)cccc5CO)c(Cl)cc34)N(C)C(=O)[C@H]2C1 (single isomer, unassigned) [Compound 34] | 5.01
11 | C=CC(=O)N1CCN2c3c(cnc4c(F)c(-c5c(F)cccc5CO)c(Cl)cc34)N(C)C(=O)[C@H]2C1 (single isomer, unassigned) [Compound 35] | 6.88
12 | C[C@@H]1CN2c3c(cnc4c(F)c(-c5c(O)cccc5F)c(Cl)cc34)OC[C@H]2CN1C(=O)/C=C/CN(C)C (single isomer, unassigned) [Compound 36] | 4.55
13 | C[C@@H]1CN2c3c(cnc4c(F)c(-c5c(O)cccc5F)c(Cl)cc34)OC[C@H]2CN1C(=O)/C=C/CN(C)C (single isomer, unassigned) [Compound 37] | 7.68
14 | C=CC(=O)N1C[C@@H]2COc3cnc4c(C)c(-c5c(O)cccc5F)c(Cl)cc4c3N2C[C@H]1C (single isomer, unassigned) [Compound 41] | 5.82
15 | C=CC(=O)N1CCN2c3c(cnc4c(C)c(-c5c(O)cccc5F)c(C)cc34)N(C)C(=O)[C@H]2C1 (single isomer, unassigned) [Compound 43] | < 4.00
16 | C=CC(=O)N1CCN2c3c(cnc4c(C)c(-c5c(O)cccc5F)c(C)cc34)N(C)C(=O)[C@H]2C1 (single isomer, unassigned) [Compound 44] | 6.85
17 | C=CC(=O)N1CCN2c3c(cnc4cc(-c5c(F)ccc6cc[nH]c(=O)c56)c(Cl)cc34)OC[C@H]2C1 (single isomer, unassigned) [Compound 46] | 5.96
18 | C=CC(=O)N1CCN2c3c(cnc4c(F)c(-c5c(C)ccc6[nH]c(=O)oc56)c(Cl)cc34)OC[C@H]2C1 (single isomer, unassigned) [Compound 47] | 7.51

Row | SMILES | pIC50
19 | C=CC(=O)N1CCN2c3c(cnc4c(F)c(-c5c(C)ccc6[nH]c(=O)oc56)c(Cl)cc34)OC[C@H]2C1 (single isomer, unassigned) [Compound 48] | 5.44
20 | C=CC(=O)N1CCN2c3c(cnc4c(F)c(-c5c(C)ccc6[nH]ncc56)c(Cl)cc34)N(C)C(=O)[C@H]2C1 (single isomer, unassigned) [Compound 50] | 5.02
21 | C=CC(=O)N1CCN2c3c(cnc4c(F)c(-c5c(O)cccc5Cl)c(Cl)cc34)N(C)C(=O)[C@H]2C1 (single isomer, unassigned) [Compound 51] | < 4.00
22 | C=CC(=O)N1CCN2c3c(cnc4c(F)c(-c5c(O)cccc5Cl)c(Cl)cc34)N(C)C(=O)[C@H]2C1 (single isomer, unassigned) [Compound 52] | 7.85
23 | C=CC(=O)N1CCN2c3c(cnc4c(F)c(-c5c(C)cccc5O)c(Cl)cc34)N(C)C(=O)[C@H]2C1 (single isomer, unassigned) [Compound 53] | 4.42
24 | C=CC(=O)N1CCN2c3c(cnc4c(F)c(-c5c(C)cccc5O)c(Cl)cc34)N(C)C(=O)[C@H]2C1 (single isomer, unassigned) [Compound 54] | 7.40
25 | C=CC(=O)N1CCN2c3c(cnc4c(F)c(-c5c(O)ccc6ccccc56)c(Cl)cc34)N(C)C(=O)[C@H]2C1 (single isomer, unassigned) [Compound 55] | 5.23
26 | C=CC(=O)N1CCN2c3c(cnc4c(F)c(-c5c(O)ccc6ccccc56)c(Cl)cc34)N(C)C(=O)[C@H]2C1 (single isomer, unassigned) [Compound 56] | 7.25
27 | C=CC(=O)N1CCN2c3c(cnc4c(F)c(-c5c(O)ccc(F)c5F)c(Cl)cc34)N(C)C(=O)[C@H]2C1 (single isomer, unassigned) [Compound 57] | 5.05
28 | C=CC(=O)N1CCN2c3c(cnc4c(F)c(-c5c(O)ccc(F)c5F)c(Cl)cc34)N(C)C(=O)[C@H]2C1 (single isomer, unassigned) [Compound 58] | 7.70
29 | C=CC(=O)N1CCN2c3c(cnc4c(F)c(-c5c(O)cccc5C(F)F)c(Cl)cc34)N(C)C(=O)[C@H]2C1 (single isomer, unassigned) [Compound 61] | 4.41
30 | C=CC(=O)N1CCN2c3c(cnc4c(F)c(-c5c(O)cccc5C(F)F)c(Cl)cc34)N(C)C(=O)[C@H]2C1 (single isomer, unassigned) [Compound 62] | 7.43
31 | C=CC(=O)N1C[C@@H]2COc3cnc4c(F)c(-c5c(O)cccc5F)c(F)cc4c3N2C[C@H]1C (single isomer, unassigned) [Compound 63] | 5.72
32 | C=CC(=O)N1C[C@@H]2COc3cnc4c(F)c(-c5c(O)cccc5F)c(F)cc4c3N2C[C@H]1C (single isomer, unassigned) [Compound 64] | 7.70
33 | C=CC(=O)N1CCN2c3c(cnc4cc(-c5c(C)ccc6[nH]c(=O)[nH]c56)c(Cl)cc34)OC[C@H]2C1 (single isomer, unassigned) [Compound 72] | 5.08
34 | C=CC(=O)N1CCN2c3c(cnc4cc(-c5c(C)ccc6[nH]ncc56)c(Cl)cc34)N(CCN(C)C)C[C@H]2C1 (single isomer, unassigned) [Compound 73] | 7.24
35 | C=CC(=O)N1CCN2c3c(cnc4cc(-c5c(C)ccc6[nH]ncc56)c(Cl)cc34)N(CCN(C)C)C[C@H]2C1 (single isomer, unassigned) [Compound 74] | 4.88
36 | C#Cc1cc2c3c(cnc2cc1-c1c(C)ccc2[nH]ncc12)OC[C@H]1CN(C(=O)C=C)CCN31 (single isomer, unassigned) [Compound 76] | 6.03
